Measurements published in US20120142947A1, “Stabilized 3-Hydroxyflavan Compositions and Methods Therefor” (priority 2005, published 2012).

Experiment: Prevention of discoloration of EGCG solutions (absorbance at 492 nm)
Format: physicochemical
Conditions: for protection of EGCG from discoloration by reducing agent: further experiments at the observed pH ranges (data not shown)
Experimental: Discoloration was measured using a spectrophotometer at a fixed wavelength of 492 nm. More specifically, solutions of EGCG (2 mM) and NAC (4 mM) were prepared in McIlvaine buffer at various pH levels in 1.0 increments between pH 3.0 to pH 7.0. A control experiment was set up without NAC but otherwise identical conditions. The so prepared solutions were incubated at 55° C. and the discoloration was measured at 492 nm over the next 15 days.

## CC(=O)N[C@@H](CS)C(=O)O [NAC, N-acetyl cysteine]
EGCG (2 mM) and NAC (4 mM) in McIlvaine buffer, pH levels of less than 6.0, 55° C., over 15 days, versus control without NAC
  discoloration measured at 492 nm: substantially reduced
  protection of EGCG from discoloration by reducing agent: prevented discoloration

## N[C@@H](CS)C(=O)O [cysteine]
  protection of EGCG from discoloration by reducing agent: failed to provide significant protection from discoloration

## N[C@@H](CCC(=O)N[C@@H](CS)C(=O)NCC(=O)O)C(=O)O [glutathione]
  protection of EGCG from discoloration by reducing agent: prevented discoloration
